Test results: patent US10960088B2, “Macrocycles, cobalt and iron complexes of same, and methods of making and using same” (The Research Foundation for The State University of New York, priority 2013, dated 2021)

Legend:
[1] = Exchange rate constants (omega plot); conditions: 10 mM complex; for kex: 20 mM HEPES pH 7.4, 100 mM NaCl, B1 8-24 μT, presat 4 s, 37° C., 11.7 T
Description: Exchange rate constants were calculated following a previously reported procedure. Measurements of on-resonance (Mz) and off-resonance (Mo) were acquired at different presaturation pulse powers between 350-1000 Hz (8-24 μT) applied for 4 seconds at 37° C. The exchange rate constant (kex) is calculated from the x-intercept from the plot of Mz/(Mo−Mz) against 1/ω1^2 (ω1 in rad/s). The rate constant, kex, is converted into units of s^−1. Samples contained 10 mM Co^II complex, 20 mM HEPES pH 7.4, and 100 mM NaCl.
The exchange rate constants were calculated by using a previously reported procedure. The magnetization of the on-resonance (Mz) and off-resonance (Mo) were acquired at different pre-saturation pulse powers between 350-1090 Hz applied for 4 seconds. To calculate the exchange rate constant (kb), the x-intercept (−1/kb^2) was obtained from the plot of Mz/(Mo−Mz) against 1/ω1^2 (ω1 in rad/s). Samples contained 16 mM [Co(TPT)]Cl2, 200 mM NaCl, and 40 mM MES or HEPES at pH 6.4-7.5. Measurements were carried out at 37° C.

[2] = Dissociation of complex over time monitored by 1H NMR; format: physicochemical; conditions: for % Dissociation Anions / % Dissociation Acidic: 10 mM Co^II complex; for % Dissociation Anions: 0.40 mM Na2HPO4, 25 mM K2CO3, 100 mM NaCl, pD 7.5-7.9, 12 hours at 37° C.; for % Dissociation Acidic: pD 3.5-3.9, 100 mM NaCl, 12 hours at 37° C.; for dissociation in presence of phosphate and carbonate (in words) / dissociation under acidic conditions (in words): 10 mM complex, 100 mM NaCl; for dissociation in presence of phosphate and carbonate (in words): 0.40 mM Na2HPO4, 25 mM K2CO3, pD 7.5-7.9, 12 hrs at 37° C.; for dissociation under acidic conditions (in words): D2O, pD 3.5-3.9, 1 hr vs 12 hrs (NOPE 4 hrs) at 37° C.
Description: Dissociation of the Co^II complexes was monitored via ^1H NMR spectroscopy of samples incubated at 37° C. over a period of 12 hours. To monitor acid dissociation, samples contained 10 mM Co^II complex, 100 mM NaCl, and 3-5 mM 3-(trimethylsilyl)-1-propanesulfonic acid sodium salt as a standard at pD 3.5-3.9. To assess the complexes in the presence of biologically relevant anions, solutions contained 10 mM Co^II complex, 100 mM NaCl, 0.40 mM Na2HPO4, 25 mM K2CO3, and 5 mM 3-(trimethylsilyl)-1-propanesulfonic acid sodium salt as a standard. Generally, 1024 transients were collected for each spectrum. […]

[3] = Effective magnetic moment in solution from magnetic susceptibility (NMR); format: physicochemical; conditions: for μeff: 5 mM Co^II complex in D2O; for magnetic moment: 25° C. in D2O
Description: The effective magnetic moment (μeff) was calculated by using a previously known method. 5 mM Co^II complex and 5% t-butanol by volume was placed in a NMR insert while the outer NMR tube contained 5% by volume t-butanol in D2O. The μeff was calculated at 298 K (T) and monitored over a period of 72 hours using the following approach.
The mass susceptibility of solute (χg) was calculated by obtaining the observed frequency shift of the reference (Δf) in Hz, the spectrometer frequency (f) in Hz, the mass of the substance per cm^3 of solution (m), and the mass susceptibility of solvent D2O (χ0=−0.6466×10^−6 cm^3/g). The last term is neglected due to the minimal contribution to mass susceptibility of solute. The molar susceptibility (χm) is the product of χg multiplied by the molecular weight of the Co^II complex.
The effective magnetic moment was calculated by using a previously known method. In a typical experiment, oxygen-free solution of 8-20 mM [Co(TPT)]^2+ in deuterium oxide, pD 7.0, containing 5% tert-butanol by volume was placed in an NMR tube, while a reference solution of 5% tert-butanol (v/v) in deuterium oxide, pD 7.0, was placed into NMR tube insert. All solutions of [Co(TPT)]^2+ were purged with argon and kept in the absence of air. The effective magnetic moment (μeff) was calculated at 298 K (T) using the following equations 7-8. In these equations the mass susceptibility of solute (χg) was calculated by obtaining the observed frequency shift of the reference (Δf) in Hz, the spectrometer frequency (f) in Hz, the mass of the substance per cm^3 of the solution (m), and the mass susceptibility of deuterium oxide (χ0=−0.6466×10^−6 cm^3/g). The last term in eq. SI is neglected due to the minimal contribution to mass susceptibility of solute. The molar susceptibility (χm) is the product of χg multiplied by the molecular weight of the [Co(TPT)]Cl2 complex. Reported value of the effective magnetic moment was obtained by averaging of three independent experiments. χg=(−3Δf)/(4πfm)+χ0+[χ0(d0−ds)]/m eq. 7 μeff=2.84(χmT)^1/2 eq. 8

[4] = Displacement of Co^II by Cu^II monitored by UV-vis; format: physicochemical; conditions: 10-fold excess of Cu^II
Description: Samples contained 200 μM Co^II complex, 10 mM MES buffer pH 5.5 and 1, 4, or 10 equivalents of CuCl2. The formation of the Cu^II complexes was monitored at 264 nm, 286 nm, 312 nm and 310 nm for [Cu(TCMT)]^2+, [Cu(NOPE)]^2+, [Cu(TCMC)]^2+, and [Cu(CCRM)]^2+, respectively. A previously reported procedure was followed.

Structure (SMILES)	kex [1]	% Dissociation Anions [2]	% Dissociation Acidic [2]	dissociation in presence of phosphate and carbonate (in words) [2]	dissociation under acidic conditions (in words) [2]	μeff [3]	magnetic moment [3]	dissociation with competing Cu^II ([4]; over 4 hours)	dissociation with competing Cu^II (in words) [4]	kex, peak at 95 ppm ([1]; peak at 95 ppm, pH 7.4, 37° C.)	kex, peak at 112 ppm ([1]; peak at 112 ppm, pH 7.4, 37° C.)	dissociation under acidic conditions within the first hour ([2]; pD 3.5-3.9, 37° C., first hour)
NC(=O)CN1CCN(CC(N)=O)CCN(CC(N)=O)CC1.[Co+2] [[Co(TCMT)]^2+]	890 s⁻¹	5%	1%	doesn't dissociate	doesn't dissociate	5.2 µB	5.2 μB	~15%	–	–	–	–
NC(=O)CN1CCOCCOCCN(CC(N)=O)CCOCC1.[Co+2] [[Co(NOPE)]^2+]	240 s⁻¹	<1%	16%	doesn't dissociate	doesn't dissociate	4.1 µB	4.1 μB	–	dissociating completely within one hour	–	–	–
NC(=O)CN1CCCN(CC(N)=O)CCN(CC(N)=O)CCCN(CC(N)=O)CC1.[Co+2] [[Co(CCRM)]^2+]	–	5%	95%	doesn't dissociate	doesn't dissociate	4.6 µB	4.6 μB	–	dissociating completely within one hour	910 s⁻¹	510 s⁻¹	95%
NC(=O)CN1CCN(CC(N)=O)CCN(CC(N)=O)CCN(CC(N)=O)CC1.[Co+2] [[Co(TCMC)]^2+]	300 s⁻¹	2%	7%	doesn't dissociate	doesn't dissociate	4.5 µB	4.5 μB	–	inert to dissociation	–	–	–
